Results published in patent US9624241B2 (Incyte Corporation, priority 2013, dated 2017).
Where two headings read alike, the source gives them in different places.

What was measured:
BRD4-BD2 = BRD4-BD2 (Homo sapiens (Human), UniProt O60885); assay: BRD4 AlphaScreen Assay (Example A2), BRD4-BD2; format: binding; details: read-out: BRD4 BD-2 enzyme IC50
Procedure: (§1) BRD4-BD1 and BRD4-BD2 assays were conducted in white 384-well polystyrene plate in a final volume of 40 μL for BD1 and 60 μL for BD2. Inhibitors were first serially diluted in DMSO and added to the plate wells before the addition of other reaction components. […] The assays were carried out at room temperature in the assay buffer (50 mM Tris-HCl, pH 7.5, 0.01% Tween-20, 0.01% BSA, 5 mM DTT), containing 50 nM Biotin-labeled tetra-acetylated histone H4 peptide (H4Ac4) and BRD4-BD1 or BRD4-BD2 protein at concentration less than 1 nM. […] After plate sealing, the plate was incubated in the dark at room temperature for 75 min. before reading on a PHERAstar FS plate reader (BMG Labtech). IC50 determination was performed by fitting the curve of percent control activity versus the log of the inhibitor concentration using the GraphPad Prism 5.0 software.

BRD4-BD1 = BRD4-BD1 (Homo sapiens (Human), UniProt O60885); assay: BRD4 AlphaScreen Assay (Example A2), BRD4-BD1; format: binding; details: read-out: BRD4 BD-1 enzyme IC50
Procedure: as §1

[1] = Assay A2, AlphaScreen, BRD4-BD2
[2] = Assay A2, AlphaScreen, BRD4-BD1

Row | Structure (SMILES) | IC50 (BRD4-BD2; [1]) | IC50 (BRD4-BD1; [2]) | IC50 (BRD4-BD2) | IC50 (BRD4-BD1)
1 | Cc1noc(C)c1-c1cc(-c2ccnn2C)c2[nH]c(=O)n3c2c1OC[C@@H]3c1ccccn1 [Example 85, (4S)-7-(3,5-dimethylisoxazol-4-yl)-9-(1-methyl-1H-pyrazol-5-yl)-4-pyridin-2-yl-4,5-dihydroimidazo[1,5,4-de][1,4]benzoxazin-2(1H)-one 2,2,2-trifluoroacetate] | 100 to 1000 nM | 1000 to 10000 nM |  | 
2 | Cc1noc(C)c1-c1cc(F)c2[nH]c(=O)n3c2c1OCC3c1ccccn1 (centres unmarked) [Example 265A, 7-(3,5-dimethylisoxazol-4-yl)-9-fluoro-4-pyridin-2-yl-4,5-dihydroimidazo[1,5,4-de][1,4]benzoxazin-2(1H)-one] | 1000 to 10000 nM | 1000 to 10000 nM |  | 
3 | Cc1noc(C)c1-c1ccc2[nH]c(=O)n3c2c1OC(C)(C)C3c1ccccn1 (single isomer, unassigned) [Example 61A, 7-(3,5-Dimethylisoxazol-4-yl)-5,5-dimethyl-4-pyridin-2-yl-4,5-dihydroimidazo[1,5,4-de][1,4]benzoxazin-2(1H)-one] | < 100 nM | < 100 nM |  | 
4 | CCC1(c2ccccn2)COc2c(-c3c(C)noc3C)ccc3[nH]c(=O)n1c23 (centres unmarked) [Example 70, 7-(3,5-Dimethylisoxazol-4-yl)-4-ethyl-4-pyridin-2-yl-4,5-dihydroimidazo[1,5,4-de][1,4]benzoxazin-2(1H)-one 2,2,2-trifluoroacetate] |  |  | < 100 nM | < 100 nM
5 | Cc1noc(C)c1-c1ccc2nc(N3CC(O)C3)n3c2c1OCC3c1cccnc1 (single isomer, unassigned) [Example 160B, 1-[7-(3,5-Dimethylisoxazol-4-yl)-4-pyridin-3-yl-4,5-dihydroimidazo[1,5,4-de][1,4]benzoxazin-2-yl]azetidin-3-ol] | 1000 to 10000 nM | 1000 to 10000 nM |  | 
6 | Cc1noc(C)c1-c1ccc2nc(N3CC(O)C3)n3c2c1OCC3c1cccnc1 (single isomer, unassigned) [Example 160A, 1-[7-(3,5-Dimethylisoxazol-4-yl)-4-pyridin-3-yl-4,5-dihydroimidazo[1,5,4-de][1,4]benzoxazin-2-yl]azetidin-3-ol] | 100 to 1000 nM | 1000 to 10000 nM |  | 
7 | Cc1noc(C)c1-c1c(Cl)c(Cl)c2[nH]c(=O)n3c2c1OC[C@@H]3c1ccccn1 [Example 252, (4S)-8,9-dichloro-7-(3,5-dimethylisoxazol-4-yl)-4-pyridin-2-yl-4,5-dihydroimidazo[1,5,4-de][1,4]benzoxazin-2(1H)-one bistrifluoroacetate] | 100 to 1000 nM | 100 to 1000 nM |  | 
8 | Cc1noc(C)c1-c1cc(-c2cnn(C)c2)c2[nH]c(=O)n3c2c1OC[C@@H]3c1ccccn1 [Example 81, (4S)-7-(3,5-dimethylisoxazol-4-yl)-9-(1-methyl-1H-pyrazol-4-yl)-4-pyridin-2-yl-4,5-dihydroimidazo[1,5,4-de][1,4]benzoxazin-2(1H)-one 2,2,2-trifluoroacetate] | < 100 nM | 100 to 1000 nM |  | 
9 | Cc1noc(C)c1-c1ccc2[nH]c(=O)n3c2c1OC(C(N)=O)C3c1ccccn1 (centres unmarked) [Example 77, 7-(3,5-dimethylisoxazol-4-yl)-2-oxo-4-pyridin-2-yl-1,2,4,5-tetrahydroimidazo[1,5,4-de][1,4]benzoxazine-5-carboxamide 2,2,2-trifluoroacetate] | 100 to 1000 nM | 100 to 1000 nM |  | 
10 | CC(=O)N1CCC(c2nc3ccc(-c4c(C)noc4C)c4c3n2[C@@H](c2ccccn2)CO4)C1 (single isomer, unassigned; diastereomer 2) [Example 113B] | < 100 nM | < 100 nM |  | 
11 | Cc1noc(C)c1-c1ccc2[nH]c(=O)n3c2c1OC(CO)C3c1ccccn1 (single isomer, unassigned) [Example 62B, 7-(3,5-Dimethylisoxazol-4-yl)-5-(hydroxymethyl)-4-pyridin-2-yl-4,5-dihydroimidazo[1,5,4-de][1,4]benzoxazin-2(1H)-one] | < 100 nM | < 100 nM |  | 
12 | Cc1noc(C)c1-c1cc(CNC(=O)Cc2ccccc2)c2[nH]c(=O)n3c2c1OC[C@@H]3c1ccccn1 [Example 139, N-{[(4S)-7-(3,5-Dimethylisoxazol-4-yl)-2-oxo-4-pyridin-2-yl-1,2,4,5-tetrahydroimidazo[1,5,4-de][1,4]benzoxazin-9-yl]methyl}-2-phenylacetamide] | < 100 nM | < 100 nM |  | 

Now from value to compound, other results behind:

Row | IC50 (BRD4-BD2; [1]) | IC50 (BRD4-BD1; [2]) | Structure (SMILES) | IC50 (BRD4-BD2) | IC50 (BRD4-BD1)
13 | < 100 nM | < 100 nM | Cc1noc(C)c1-c1ccc2ncn3c2c1OC[C@@H]3c1ccccn1 [Example 92, (4S)-7-(3,5-Dimethylisoxazol-4-yl)-4-pyridin-2-yl-4,5-dihydroimidazo[1,5,4-de][1,4]benzoxazine] |  | 
14 | < 100 nM | < 100 nM | Cc1noc(C)c1-c1ccc2nc(N3CC(NC(=O)C(C)C)C3)n3c2c1OC[C@@H]3c1ccccn1 [Example 233, N-{1-[(4S)-7-(3,5-dimethylisoxazol-4-yl)-4-pyridin-2-yl-4,5-dihydroimidazo[1,5,4-de][1,4]benzoxazin-2-yl]azetidin-3-yl}-2-methylpropanamide] |  | 
15 | < 100 nM | < 100 nM | Cc1noc(C)c1-c1ccc2nc(C(=O)N3CCOCC3)n3c2c1OC[C@@H]3c1ccccn1 [Example 94, (4S)-7-(3,5-Dimethylisoxazol-4-yl)-2-(morpholin-4-ylcarbonyl)-4-pyridin-2-yl-4,5-dihydroimidazo[1,5,4-de][1,4]benzoxazine] |  | 
16 | < 100 nM | < 100 nM | CC(=O)N1CCC(c2nc3ccc(-c4c(C)noc4C)c4c3n2[C@@H](c2ccccn2)CO4)CC1 [Example 109, (4S)-2-(1-Acetylpiperidin-4-yl)-7-(3,5-dimethylisoxazol-4-yl)-4-pyridin-2-yl-4,5-dihydroimidazo[1,5,4-de][1,4]benzoxazine] |  | 
17 | < 100 nM | 100 to 1000 nM | Cc1noc(C)c1-c1cc(C(C)O)c2[nH]c(=O)n3c2c1OC[C@@H]3c1ccccn1 (single isomer, unassigned) [Example 144A] |  | 
18 | < 100 nM | < 100 nM | CC(=O)N1CCCN(c2nc3ccc(-c4c(C)noc4C)c4c3n2[C@@H](c2ccccn2)CO4)CC1 [Example 148, (4S)-2-(4-Acetyl-1,4-diazepan-1-yl)-7-(3,5-dimethylisoxazol-4-yl)-4-pyridin-2-yl-4,5-dihydroimidazo[1,5,4-de][1,4]benzoxazine] |  | 
19 | < 100 nM | < 100 nM | Cc1noc(C)c1-c1ccc2nc(C3CCN(C(=O)OC(C)(C)C)C3)n3c2c1OC[C@@H]3c1ccccn1 (single isomer, unassigned; diastereoisomer 1) [Example 101A] |  | 
20 | < 100 nM | 1000 to 10000 nM | Cc1noc(C)c1-c1cc(CNc2ccccc2)c2[nH]c(=O)n3c2c1OCC3c1ccccn1 (centres unmarked) [Example 262, 9-(anilinomethyl)-7-(3,5-dimethylisoxazol-4-yl)-4-pyridin-2-yl-4,5-dihydroimidazo[1,5,4-de][1,4]benzoxazin-2(1H)-one] |  | 
21 | < 100 nM | < 100 nM | Cc1noc(C)c1-c1ccc2nc(N3CCCN(S(C)(=O)=O)CC3)n3c2c1OC[C@@H]3c1ccccn1 [Example 149, (4S)-7-(3,5-Dimethylisoxazol-4-yl)-2-[4-(methylsulfonyl)-1,4-diazepan-1-yl]-4-pyridin-2-yl-4,5-dihydroimidazo[1,5,4-de][1,4]benzoxazine] |  | 
22 | < 100 nM | < 100 nM | Cc1noc(C)c1-c1ccc2nc(C(=O)N(C)C)n3c2c1OC[C@@H]3c1ccccn1 [Example 91, (4S)-7-(3,5-Dimethylisoxazol-4-yl)-N,N-dimethyl-4-pyridin-2-yl-4,5-dihydroimidazo[1,5,4-de][1,4]benzoxazine-2-carboxamide] |  | 
23 | < 100 nM | 100 to 1000 nM | Cc1noc(C)c1-c1ccc2[nH]c(=O)n3c2c1OC(C(=O)NCCO)C3c1ccccc1 (single isomer, unassigned) [Example 48B, 7-(3,5-Dimethylisoxazol-4-yl)-N-(2-hydroxyethyl)-2-oxo-4-phenyl-1,2,4,5-tetrahydroimidazo[1,5,4-de][1,4]benzoxazine-5-carboxamide] |  | 
24 | < 100 nM | < 100 nM | Cc1noc(C)c1-c1cc(C#N)c2[nH]c(=O)n3c2c1OCC3c1ccccc1 (centres unmarked) [Example 42, 7-(3,5-Dimethylisoxazol-4-yl)-2-oxo-4-phenyl-1,2,4,5-tetrahydroimidazo[1,5,4-de][1,4]benzoxazine-9-carbonitrile] |  | 
25 | < 100 nM | 100 to 1000 nM | Cc1noc(C)c1-c1cc(-c2ccc(C(=O)N(C)C)nc2)c2[nH]c(=O)n3c2c1OC[C@@H]3c1ccccn1 [Example 82, 5-[(4S)-7-(3,5-dimethylisoxazol-4-yl)-2-oxo-4-pyridin-2-yl-1,2,4,5-tetrahydroimidazo[1,5,4-de][1,4]benzoxazin-9-yl]-N,N-dimethylpyridine-2-carboxamide 2,2,2-bis(trifluoroacetate)] |  | 
26 | < 100 nM | < 100 nM | Cc1noc(C)c1-c1cc(-c2cccnc2)c2[nH]c(=O)n3c2c1OCC3c1ccccc1 (centres unmarked) [Example 52, 7-(3,5-Dimethylisoxazol-4-yl)-4-phenyl-9-pyridin-3-yl-4,5-dihydroimidazo[1,5,4-de][1,4]benzoxazin-2(1H)-one] |  | 
27 | < 100 nM | < 100 nM | Cc1noc(C)c1-c1ccc2nc(C3CCNC3)n3c2c1OC[C@@H]3c1ccccn1 (single isomer, unassigned; diastereomer 2) [Example 106B] |  | 
28 | < 100 nM | < 100 nM | Cc1noc(C)c1-c1cc(F)c2[nH]c(=O)n3c2c1OCC3c1ccccn1 (centres unmarked) [Example 265B, 7-(3,5-dimethylisoxazol-4-yl)-9-fluoro-4-pyridin-2-yl-4,5-dihydroimidazo[1,5,4-de][1,4]benzoxazin-2(1H)-one] |  | 
